Measurements from ChEMBL document CHEMBL1255225, “Antiviral activity of various 1-(2'-deoxy-β-D-lyxofuranosyl), 1-(2'-fluoro-β-D-xylofuranosyl), 1-(3'-fluoro-β-D-arabinofuranosyl), and 2'-fluoro-2',3'-didehydro-2',3'-dideoxyribose pyrimidine nucleoside analogues against duck hepatitis B virus (DHBV) and human hepatitis B virus (HBV) replication” (J Med Chem, 2010).
pEC50: −log10 of the molar value.

What was measured:
[1] = Cytotoxicity against HuH7 cells; type: cell-based, Huh-7; details: human
[2] = tested on: Hepatitis B virus; assay: Antiviral activity against HBV assessed as inhibition of viral DNA replication at 10 ug/mL; type: functional; design: scale not given: the % may be the effect or the level left
[3] = tested on: Duck hepatitis B virus; assay: Antiviral activity against DHBV infected in duck hepatocytes assessed as inhibition of viral DNA replication at 10 ug/ml; type: functional, Hepatocyte; design: scale not given: the % may be the effect or the level left
[4] = tested on: Duck hepatitis B virus; assay: Antiviral activity against DHBV infected in duck hepatocytes assessed as inhibition of viral DNA replication at 1 ug/ml; type: functional, Hepatocyte; design: scale not given: the % may be the effect or the level left
[5] = tested on: Duck hepatitis B virus; assay: Antiviral activity against DHBV infected in duck hepatocytes assessed as inhibition of viral DNA replication; type: functional, organism-based; details: Hepatocyte
[6] = tested on: Hepatitis B virus; assay: Antiviral activity against drug resistant HBV infected in M204I cells assessed as inhibition of viral DNA replication; type: functional, organism-based
[7] = tested on: Hepatitis B virus; assay: Antiviral activity against drug resistant HBV infected in M204I cells assessed as inhibition of viral DNA replication at 1 ug/mL; type: functional; design: scale not given: the % may be the effect or the level left
[8] = tested on: Hepatitis B virus; assay: Antiviral activity against HBV assessed as inhibition of viral DNA replication; type: functional, organism-based
[9] = tested on: Hepatitis B virus; assay: Antiviral activity against HBV assessed as inhibition of viral DNA replication at 0.5 ug/mL; type: functional; design: scale not given: the % may be the effect or the level left
[10] = tested on: Duck hepatitis B virus; assay: Antiviral activity against DHBV infected in duck hepatocytes assessed as inhibition of viral DNA replication at 0.05 ug/ml; type: functional, Hepatocyte; design: scale not given: the % may be the effect or the level left
[11] = tested on: Hepatitis B virus; assay: Antiviral activity against HBV assessed as inhibition of viral DNA replication at 1 ug/mL; type: functional; design: scale not given: the % may be the effect or the level left
[12] = tested on: Hepatitis B virus; assay: Antiviral activity against drug resistant HBV infected in M204I cells assessed as inhibition of viral DNA replication at 10 ug/mL; type: functional; design: scale not given: the % may be the effect or the level left
[13] = tested on: Hepatitis B virus; assay: Antiviral activity against HBV assessed as inhibition of viral DNA replication relative to control; type: functional; design: concentration or dose not given beside the values
[14] = tested on: Duck hepatitis B virus; assay: Antiviral activity against DHBV infected in duck hepatocytes assessed as inhibition of viral DNA replication relative to control; type: functional, Hepatocyte; design: concentration or dose not given beside the values
[15] = tested on: Hepatitis B virus; assay: Antiviral activity against drug resistant HBV infected in M204I cells assessed as inhibition of viral DNA replication at 1 to 5 ug/mL; type: functional; design: scale not given: the % may be the effect or the level left
[16] = tested on: Hepatitis B virus; assay: Antiviral activity against HBV assessed as inhibition of viral DNA replication at 0.5 to 1 ug/mL; type: functional; design: scale not given: the % may be the effect or the level left
[17] = tested on: Duck hepatitis B virus; assay: Antiviral activity against DHBV infected in duck hepatocytes assessed as inhibition of viral DNA replication at 0.01 to 0.05 ug/mL; type: functional, Hepatocyte; design: scale not given: the % may be the effect or the level left
[18] = tested on: Hepatitis B virus; assay: Antiviral activity against drug resistant HBV infected in M204I cells assessed as inhibition of viral DNA replication at 5 ug/mL; type: functional; design: scale not given: the % may be the effect or the level left
[19] = tested on: Hepatitis B virus; assay: Antiviral activity against HBV assessed as inhibition of viral DNA replication at 5 ug/mL; type: functional; design: scale not given: the % may be the effect or the level left

O=c1ccn([C@@H]2O[C@H](CO)[C@@H](F)[C@@H]2O)c(=O)[nH]1
CC50 [1]: > 813 µM | Activity [2]: 15% | Activity [3]: 25%

Cc1cn([C@@H]2O[C@H](CO)C=C2F)c(=O)[nH]c1=O
Activity [4]: 67% | CC50 [1]: > 413 µM | pEC50 [5]: 6.70 | Activity [2]: 85% | pEC50 [6]: 5.39 | Activity [7]: 50% | pEC50 [8]: 5.70 | Activity [3]: 94% | Activity [9]: 50% | Activity [10]: 50% | Activity [11]: 58%

Cc1cn([C@H]2C[C@@H](O)[C@@H](CO)O2)c(=O)[nH]c1=O
Activity [4]: 50% | CC50 [1]: > 826 µM | pEC50 [5]: 5.38 | Activity [2]: 50% | pEC50 [8]: 4.38 | Activity [12]: 45% | Activity [3]: 65%

O=c1[nH]c(=O)n([C@H]2CC(O)[C@@H](CO)O2)cc1F (single isomer, unassigned) [FLOXURIDINE]
CC50 [1]: > 813 µM | Activity [13]: 0% | Activity [14]: 0%

O=c1ccn([C@H]2C[C@@H](O)[C@@H](CO)O2)c(=O)[nH]1
CC50 [1]: > 877 µM | Activity [13]: 0% | Activity [14]: 0%

O=c1ccn([C@@H]2O[C@H](CO)[C@H](O)[C@H]2F)c(=O)[nH]1
CC50 [1]: > 813 µM | pEC50 [5]: 4.39 | Activity [2]: 40% | Activity [3]: 50%

O=c1[nH]c(=O)n([C@H]2C[C@H](O)[C@@H](CO)O2)cc1I [IDOXURIDINE]
CC50 [1]: > 282 µM | Activity [13]: 0% | Activity [14]: 0%

Cc1cn([C@H]2C[C@@H](O)[C@@H](CO)O2)c(=O)[nH]c1=S
CC50 [1]: > 775 µM | Activity [13]: 0% | Activity [14]: 0%

O=c1[nH]c(=O)n([C@H]2C[C@@H](O)[C@@H](CO)O2)cc1Cl
CC50 [1]: > 763 µM | Activity [2]: 15% | Activity [3]: 25%

Nc1ncnc2c1ncn2[C@H]1CC(O)[C@@H](CO)O1 (single isomer, unassigned) [DEOXYADENOSINE]
Activity [2]: 36% | Activity [3]: 40%

Nc1nc(NC2CC2)c2ncn([C@H]3C=C[C@@H](CO)C3)c2n1 [ABACAVIR]
Activity [15]: 80% | pEC50 [6]: > 5.59

Cc1cn([C@@H]2O[C@H](CO)[C@@H](F)[C@@H]2O)c(=O)[nH]c1=O
CC50 [1]: > 769 µM | Activity [13]: 0% | Activity [14]: 0%

O=c1[nH]c(=O)n([C@H]2C[C@@H](O)[C@@H](CO)O2)cc1Br
CC50 [1]: > 651 µM | Activity [13]: 0% | Activity [14]: 0%

CCc1cn([C@H]2C[C@@H](O)[C@@H](CO)O2)c(=O)[nH]c1=O
CC50 [1]: > 781 µM | Activity [13]: 0% | Activity [14]: 0%

Nc1ccn([C@@H]2CS[C@H](CO)O2)c(=O)n1 [LAMIVUDINE]
CC50 [1]: > 873 µM | pEC50 [5]: > 7.36 | pEC50 [6]: < 4.36 | Activity [16]: 85% | Activity [17]: 95% | pEC50 [8]: 6.66 | Activity [12]: 40%

Cc1cn([C@@H]2O[C@H](CO)[C@H](O)[C@H]2F)c(=O)[nH]c1=O
Activity [4]: 50% | CC50 [1]: > 769 µM | Activity [18]: 50% | pEC50 [5]: 5.42 | Activity [2]: 60% | pEC50 [6]: 4.72 | Activity [19]: 50% | pEC50 [8]: 4.72 | Activity [3]: 72%

O=c1[nH]c(=O)n([C@H]2CC(O)[C@@H](CO)O2)cc1C(F)(F)F (single isomer, unassigned) [TRIFLURIDINE]
Activity [4]: 50% | CC50 [1]: > 675 µM | pEC50 [5]: 5.47 | Activity [2]: 55% | pEC50 [6]: 4.47 | pEC50 [8]: 4.47 | Activity [12]: 50% | Activity [3]: 70%

CCc1cn([C@@H]2O[C@H](CO)C=C2F)c(=O)[nH]c1=O
CC50 [1]: > 781 µM | pEC50 [5]: 4.41 | Activity [2]: 50% | pEC50 [6]: 4.41 | pEC50 [8]: 4.41 | Activity [12]: 50% | Activity [3]: 50%
